Converted amounts (≈) assume the structure as drawn. Read-outs that look alike come from different tables or passages of the source. Where a SMILES comes first, the peptide text is derived from it. Bridges are numbered along the chain shown (N, C = ends). [ ]: non-standard residue; d: D form. NMeR = CN[C@@H](CCCNC(=N)N)C(=O)O; dNMeR = CN[C@H](CCCNC(=N)N)C(=O)O
What was measured:
human red blood cells = details: red cells of human
Staphylococcus aureus = experiment: microbe, parasite or virus in culture; type: cell-based
Acinetobacter baumannii = type: cell-based
Klebsiella pneumoniae = type: cell-based
Pseudomonas aeruginosa = type: cell-based
Escherichia coli = type: cell-based

Compound	MIC (μM) sa (Staphylococcus aureus)	MIC (μM) ab (Acinetobacter baumannii)	MIC (μM) kp (Klebsiella pneumoniae)	MIC (μM) pa (Pseudomonas aeruginosa)	MIC90 (Escherichia coli)	MIC (μM) ec (Escherichia coli)	MIC (μM) ab (Acinetobacter baumannii; Acinetobacter baumannii, non-resistant, microbroth dilution, n = 5)	MIC (μM) kp (Klebsiella pneumoniae; Klebsiella pneumoniae, non-resistant, microbroth dilution, n = 5)	MIC (μM) pa (Pseudomonas aeruginosa; Pseudomonas aeruginosa, non-resistant, microbroth dilution, n = 5)	MHC10 (μM), minimum hemolytic concentration (human red blood cells)	MIC (Staphylococcus aureus; Staphylococcus aureus, read-out: MIC (μM) sa)
CC(C)C[C@H](NC(=O)[C@H](CCCNC(=N)N)NC(=O)CNC(=O)CNC(=O)[C@@H](N)CCCNC(=N)N)C(=O)N[C@H]1CSSC[C@@H](C(=O)N[C@H](C(=O)NCC(=O)N[C@@H](CCCNC(=N)N)C(N)=O)C(C)C)NC(=O)[C@H](C(C)C)NC(=O)[C@@H]2CSSC[C@H](NC(=O)[C@H](Cc3ccc(O)cc3)NC1=O)C(=O)N[C@@H](CCCNC(=N)N)C(=O)N[C@@H](CCCNC(=N)N)C(=O)N[C@@H](CCCNC(=N)N)C(=O)N[C@@H](Cc1ccccc1)C(=O)N2 [compound 2, reference compound]	3.1 µM (≈ 6.68 µg/mL)	0.4 µM (≈ 0.862 µg/mL)	0.6 µM (≈ 1.29 µg/mL)	0.6 µM (≈ 1.29 µg/mL)	0.3 µM (≈ 0.647 µg/mL)	0.3 µM (≈ 0.647 µg/mL)	–	–	–	3.12 µM	–
Polymyxin B [reference compound]	–	–	–	–	–	–	0.8 µM	3.0 µM	0.8 µM	–	–
CC(C)[C@H](NC(=O)CNC(=O)[C@H](CCCNC(=N)N)NC(=O)[C@@H](NC(=O)[C@H](CCCNC(=N)N)NC(=O)[C@H](C)NC(=O)[C@H](Cc1ccc(O)cc1)NC(=O)[C@@H](NC(=O)[C@@H](NC(=O)[C@H](Cc1c[nH]c2ccccc12)NC(=O)[C@@H](N)CCCNC(=N)N)[C@@H](C)O)C(C)C)C(C)C)C(=O)N[C@@H](CCCNC(=N)N)C(=O)N[C@@H](Cc1ccc(O)cc1)C(=O)N[C@@H](CCCNC(=N)N)C(=O)N[C@@H](CCCNC(=N)N)C(=O)N[C@H](C(=O)N[C@@H](Cc1c[nH]c2ccccc12)C(=O)O)[C@@H](C)O [1c] (H-RWTVYARVRGVRYRRTW-OH)	2.4 µM (≈ 5.48 µg/mL)	3.12 µM (≈ 7.12 µg/mL)	1.6 µM (≈ 3.65 µg/mL)	12.5 µM (≈ 28.5 µg/mL)	2.4 µM (≈ 5.48 µg/mL)	2.4 µM (≈ 5.48 µg/mL)	–	–	–	–	–
CC(C)[C@@H]1NC(=O)[C@@H](NC(=O)[C@H](Cc2c[nH]c3ccccc23)NC(=O)[C@@H](N)CCCNC(=N)N)CSSC[C@@H](C(=O)N[C@@H](Cc2c[nH]c3ccccc23)C(=O)O)NC(=O)[C@H](CCCNC(=N)N)NC(=O)[C@H](CCCNC(=N)N)NC(=O)[C@H](Cc2ccc(O)cc2)NC(=O)[C@H](CCCNC(=N)N)NC(=O)[C@H](C(C)C)NC(=O)[C@H](CCCNC(=N)N)N(C)C(=O)[C@@H](C)NC(=O)[C@H](C(C)C)NC(=O)[C@H](CCCNC(=N)N)NC(=O)[C@H](C)NC(=O)[C@H](Cc2ccc(O)cc2)NC1=O [1a] (H-RWCVYARV[dA][NMeR]VRYRRCW-OH; disulfide 3-16)	0.8 µM (≈ 1.85 µg/mL)	0.4 µM (≈ 0.925 µg/mL)	0.8 µM (≈ 1.85 µg/mL)	0.8 µM (≈ 1.85 µg/mL)	0.4 µM (≈ 0.925 µg/mL)	0.4 µM (≈ 0.925 µg/mL)	–	–	–	–	–
CC(C)[C@H](NC(=O)[C@H](CCCNC(=N)N)NC(=O)[C@H](C)NC(=O)[C@H](Cc1ccc(O)cc1)NC(=O)[C@@H](NC(=O)[C@@H](NC(=O)[C@H](Cc1c[nH]c2ccccc12)NC(=O)[C@@H](N)CCCNC(=N)N)[C@@H](C)O)C(C)C)C(=O)N[C@@H](C(=O)N(C)[C@@H](CCCNC(=N)N)C(=O)N[C@H](C(=O)N[C@@H](CCCNC(=N)N)C(=O)N[C@@H](Cc1ccc(O)cc1)C(=O)N[C@@H](CCCNC(=N)N)C(=O)N[C@@H](CCCNC(=N)N)C(=O)N[C@H](C(=O)N[C@@H](Cc1c[nH]c2ccccc12)C(=O)O)[C@@H](C)O)C(C)C)C(C)C [1e] (H-RWTVYARV[dV][NMeR]VRYRRTW-OH)	2.6 µM (≈ 6.08 µg/mL)	0.4 µM (≈ 0.935 µg/mL)	1.6 µM (≈ 3.74 µg/mL)	0.8 µM (≈ 1.87 µg/mL)	0.6 µM (≈ 1.4 µg/mL)	0.6 µM (≈ 1.4 µg/mL)	–	–	–	–	–
CC(C)[C@@H]1NC(=O)[C@@H](NC(=O)[C@H](Cc2c[nH]c3ccccc23)NC(=O)[C@@H](N)CCCNC(=N)N)CSSC[C@@H](C(=O)N[C@@H](Cc2c[nH]c3ccccc23)C(=O)O)NC(=O)[C@H](CCCNC(=N)N)NC(=O)[C@H](CCCNC(=N)N)NC(=O)[C@H](Cc2ccc(O)cc2)NC(=O)[C@H](CCCNC(=N)N)NC(=O)[C@H](C(C)C)NC(=O)[C@H](CCCNC(=N)N)N(C)C(=O)[C@@H](C(C)C)NC(=O)[C@H](C(C)C)NC(=O)[C@H](CCCNC(=N)N)NC(=O)[C@H](C)NC(=O)[C@H](Cc2ccc(O)cc2)NC1=O [1b] (H-RWCVYARV[dV][NMeR]VRYRRCW-OH; disulfide 3-16)	0.4 µM (≈ 0.936 µg/mL)	0.8 µM (≈ 1.87 µg/mL)	0.4 µM (≈ 0.936 µg/mL)	0.8 µM (≈ 1.87 µg/mL)	0.2 µM (≈ 0.468 µg/mL)	0.2 µM (≈ 0.468 µg/mL)	–	–	–	–	–
CN[C@H](CC(C)C)C(=O)N[C@H]1C(=O)N[C@@H](CC(N)=O)C(=O)N[C@H]2C(=O)N[C@H]3C(=O)N[C@H](C(=O)N[C@H](C(=O)O)c4cc(O)cc(O)c4-c4cc3ccc4O)[C@H](O)c3ccc(c(Cl)c3)Oc3cc2cc(c3O[C@@H]2O[C@H](CO)[C@@H](O)[C@H](O)[C@H]2O[C@H]2C[C@](C)(N)[C@H](O)[C@H](C)O2)Oc2ccc(cc2Cl)[C@H]1O [Vancomycin, reference compound]	–	–	–	–	–	–	–	–	–	–	0.6 µM (≈ 0.87 µg/mL)

Now from value to compound, other results behind:

MIC (μM) sa (Staphylococcus aureus)	MIC (μM) ab (Acinetobacter baumannii)	MIC (μM) kp (Klebsiella pneumoniae)	MIC (μM) pa (Pseudomonas aeruginosa)	MIC90 (Escherichia coli)	MIC (μM) ec (Escherichia coli)	MIC (μM) ab (Acinetobacter baumannii; Acinetobacter baumannii, non-resistant, microbroth dilution, n = 5)	MIC (μM) kp (Klebsiella pneumoniae; Klebsiella pneumoniae, non-resistant, microbroth dilution, n = 5)	MIC (μM) pa (Pseudomonas aeruginosa; Pseudomonas aeruginosa, non-resistant, microbroth dilution, n = 5)	Compound	MHC10 (μM), minimum hemolytic concentration (human red blood cells)	MIC (Staphylococcus aureus; Staphylococcus aureus, read-out: MIC (μM) sa)
2.3 µM (≈ 4.79 µg/mL)	2.3 µM (≈ 4.79 µg/mL)	3.1 µM (≈ 6.45 µg/mL)	1.6 µM (≈ 3.33 µg/mL)	0.4 µM (≈ 0.832 µg/mL)	0.4 µM (≈ 0.832 µg/mL)	–	–	–	CC(C)C[C@@H](NC(=O)[C@@H](CCCNC(=N)N)NC(=O)CNC(=O)CNC(=O)[C@H](N)CCCNC(=N)N)C(=O)N[C@@H](C(=O)N[C@H](Cc1ccc(O)cc1)C(=O)N[C@@H](C(=O)N[C@H](CCCNC(=N)N)C(=O)N[C@@H](C)C(=O)N(C)[C@H](CCCNC(=N)N)C(=O)N[C@H](Cc1ccccc1)C(=O)N[C@@H](C(=O)N[C@@H](C(=O)N[C@@H](C(=O)N[C@@H](C(=O)NCC(=O)N[C@H](CCCNC(=N)N)C(N)=O)C(C)C)[C@H](C)O)C(C)C)[C@H](C)O)[C@H](C)O)[C@H](C)O [2f] (H-[dR]GG[dR][dL][dT][dY][dT][dR]A[dNMeR][dF][dT][dV][dT][dV]G[dR]-NH2)	>200 µM	–
3.1 µM (≈ 6.45 µg/mL)	0.4 µM (≈ 0.832 µg/mL)	0.8 µM (≈ 1.66 µg/mL)	1.6 µM (≈ 3.33 µg/mL)	0.4 µM (≈ 0.832 µg/mL)	–	–	–	–	CC(C)C[C@H](NC(=O)[C@H](CCCNC(=N)N)NC(=O)CNC(=O)CNC(=O)[C@@H](N)CCCNC(=N)N)C(=O)N[C@H](C(=O)N[C@@H](Cc1ccc(O)cc1)C(=O)N[C@H](C(=O)N[C@@H](CCCNC(=N)N)C(=O)N[C@H](C)C(=O)N(C)[C@@H](CCCNC(=N)N)C(=O)N[C@@H](Cc1ccccc1)C(=O)N[C@H](C(=O)N[C@H](C(=O)N[C@H](C(=O)N[C@H](C(=O)NCC(=O)N[C@@H](CCCNC(=N)N)C(N)=O)C(C)C)[C@@H](C)O)C(C)C)[C@@H](C)O)[C@@H](C)O)[C@@H](C)O [2d] (H-RGGRLTYTR[dA][NMeR]FTVTVGR-NH2)	100 µM	–
–	–	–	–	1.1 µM (≈ 2.76 µg/mL)	–	–	–	–	CC(C)[C@H](NC(=O)[C@H](CCCNC(=N)N)NC(=O)[C@H](Cc1ccccc1)NC(=O)[C@@H](NC(=O)[C@H](Cc1c[nH]c2ccccc12)NC(=O)[C@H](CCCNC(=N)N)NC(=O)[C@@H](N)CCCNC(=N)N)[C@@H](C)O)C(=O)N[C@H](C(=O)N[C@@H](Cc1ccc(O)cc1)C(=O)N[C@@H](C(=O)N(C)[C@@H](CCCNC(=N)N)C(=O)N[C@@H](Cc1ccccc1)C(=O)N[C@H](C(=O)N[C@@H](Cc1ccc(O)cc1)C(=O)N[C@@H](CCCNC(=N)N)C(=O)N[C@@H](CCCCN)C(=O)N[C@H](C(=O)N[C@@H](CCCNC(=N)N)C(N)=O)[C@@H](C)O)[C@@H](C)O)C(C)C)[C@@H](C)O [3e] (H-RRWTFRVTY[dV][NMeR]FTYRKTR-NH2)	50 µM	–
–	–	–	–	0.5 µM (≈ 1.04 µg/mL)	–	–	–	–	CC(C)C[C@H](NC(=O)[C@H](CCCNC(=N)N)NC(=O)CNC(=O)CNC(=O)[C@@H](N)CCCNC(=N)N)C(=O)N[C@H]1CSSC[C@@H](C(=O)N[C@H](C(=O)NCC(=O)N[C@@H](CCCNC(=N)N)C(N)=O)C(C)C)NC(=O)[C@H](C(C)C)NC(=O)[C@@H]2CSSC[C@H](NC(=O)[C@H](Cc3ccc(O)cc3)NC1=O)C(=O)N[C@@H](CCCNC(=N)N)C(=O)N[C@H](C)C(=O)N(C)[C@@H](CCCNC(=N)N)C(=O)N[C@@H](Cc1ccccc1)C(=O)N2 [2a] (H-RGGRLCYCR[dA][NMeR]FCVCVGR-NH2; disulfide 6-15, 8-13)	3.12 µM	–
–	–	–	–	0.3 µM (≈ 0.633 µg/mL)	–	–	–	–	CC(C)C[C@H](NC(=O)[C@H](CCCNC(=N)N)NC(=O)CNC(=O)CNC(=O)[C@@H](N)CCCNC(=N)N)C(=O)N[C@H](C(=O)N[C@@H](Cc1ccc(O)cc1)C(=O)N[C@H](C(=O)N[C@@H](CCCNC(=N)N)C(=O)N[C@@H](C(=O)N(C)[C@@H](CCCNC(=N)N)C(=O)N[C@@H](Cc1ccccc1)C(=O)N[C@H](C(=O)N[C@H](C(=O)N[C@H](C(=O)N[C@H](C(=O)NCC(=O)N[C@@H](CCCNC(=N)N)C(N)=O)C(C)C)[C@@H](C)O)C(C)C)[C@@H](C)O)C(C)C)[C@@H](C)O)[C@@H](C)O [2e] (H-RGGRLTYTR[dV][NMeR]FTVTVGR-NH2)	50 µM	–
–	–	–	–	0.2 µM (≈ 0.463 µg/mL)	–	–	–	–	CC[C@H](C)[C@H](NC(=O)[C@H](CCCNC(=N)N)N(C)C(=O)[C@H](NC(=O)[C@H](Cc1ccc(O)cc1)NC(=O)[C@@H](NC(=O)[C@@H](NC(=O)[C@H](CCCNC(=N)N)NC(=O)[C@H](Cc1ccccc1)NC(=O)[C@@H](NC(=O)[C@H](Cc1c[nH]c2ccccc12)NC(=O)[C@@H](N)CCCCN)[C@@H](C)O)C(C)C)[C@@H](C)O)C(C)C)C(=O)N[C@H](C(=O)N[C@@H](Cc1ccc(O)cc1)C(=O)N[C@@H](CCCNC(=N)N)C(=O)N[C@@H](CCCNC(=N)N)C(=O)N[C@H](C(=O)N[C@@H](CCCNC(=N)N)C(N)=O)[C@@H](C)O)[C@@H](C)O [4e] (H-KWTFRVTY[dV][NMeR]ITYRRTR-NH2)	50 µM	–
–	–	–	–	0.4 µM (≈ 0.845 µg/mL)	–	–	–	–	CC(C)C[C@H](NC(=O)[C@H](CCCNC(=N)N)NC(=O)CNC(=O)CNC(=O)[C@@H](N)CCCNC(=N)N)C(=O)N[C@H]1CSSC[C@@H](C(=O)N[C@H](C(=O)NCC(=O)N[C@@H](CCCNC(=N)N)C(N)=O)C(C)C)NC(=O)[C@H](C(C)C)NC(=O)[C@@H]2CSSC[C@H](NC(=O)[C@H](Cc3ccc(O)cc3)NC1=O)C(=O)N[C@@H](CCCNC(=N)N)C(=O)N[C@H](C(C)C)C(=O)N(C)[C@@H](CCCNC(=N)N)C(=O)N[C@@H](Cc1ccccc1)C(=O)N2 [2b] (H-RGGRLCYCR[dV][NMeR]FCVCVGR-NH2; disulfide 6-15, 8-13)	3.12 µM	–

— PMC12520178, “Turn-engineering tunes the conformational rigidity of β-hairpin AMPs in achieving membrane selectivity and killing drug-resistant ESKAPE pathogens” (Chemical Science, 2025)
